According to the NIST ThermoML archive (doi:10.1016/j.fluid.2007.07.013):
± gives the expanded uncertainty stated by the source. Each block holds one compound with its values, some of them ahead of it.

Settings: Liquid

SMILES: S=C=S [carbon disulfide]
vapor or sublimation pressure (273.08 K): 17 ± 12 kPa
vapor or sublimation pressure (298.4 K): 49 ± 12 kPa
vapor or sublimation pressure (323.5 K): 116 ± 12 kPa
vapor or sublimation pressure (348.45 K): 240 ± 12 kPa

SMILES: S [hydrogen sulfide]
vapor or sublimation pressure (273.08 K): 1033 ± 17 kPa
vapor or sublimation pressure (298.4 K): 2024 ± 26 kPa
vapor or sublimation pressure (323.5 K): 3564 ± 44 kPa
vapor or sublimation pressure (348.45 K): 5812 ± 72 kPa

SMILES: CS [methanethiol]
vapor or sublimation pressure (243.19 K): 20 ± 12 kPa
vapor or sublimation pressure (258 K): 42 ± 12 kPa
vapor or sublimation pressure (272.98 K): 80 ± 12 kPa
vapor or sublimation pressure (293.35 K): 170 ± 12 kPa
vapor or sublimation pressure (298.23 K): 200 ± 12 kPa

Results, then the compound that gave them:

vapor or sublimation pressure (247.76 K): 1 kPa
vapor or sublimation pressure (272.96 K): 6 kPa
vapor or sublimation pressure (293.23 K): 17 ± 12 kPa
vapor or sublimation pressure (293.41 K): 17 ± 12 kPa
vapor or sublimation pressure (313.33 K): 40 ± 12 kPa
vapor or sublimation pressure (313.35 K): 40 ± 12 kPa
SMILES: CCSC [2-thiabutane]

vapor or sublimation pressure (252.89 K): 8 ± 12 kPa
vapor or sublimation pressure (253.06 K): 8 ± 12 kPa
vapor or sublimation pressure (272.76 K): 22 ± 12 kPa
vapor or sublimation pressure (278.46 K): 29 ± 12 kPa
vapor or sublimation pressure (293.16 K): 53 ± 12 kPa
vapor or sublimation pressure (293.43 K): 54 ± 12 kPa
vapor or sublimation pressure (313.3 K): 112 ± 12 kPa
vapor or sublimation pressure (313.43 K): 112 ± 12 kPa
SMILES: CSC [2-thiapropane]

vapor or sublimation pressure (272.94 K): 25 ± 12 kPa
vapor or sublimation pressure (293.36 K): 59 ± 12 kPa
vapor or sublimation pressure (313.41 K): 121 ± 12 kPa
SMILES: CCS [ethanethiol]
